Earlier results on three compounds are cited in patent US9498539B2, “Affinity-based controlled release system” (priority 2012, dated 2016).

The Kd is a measure of binding affinity in units of concentration.

Data set [1] addresses Streptavidin (Streptomyces avidinii, UniProt P22629). The following applies: streptavidin binds 2-iminobiotin, medium affinity; cited from earlier work.
For data set [2] the following is noted: 24 h; cited from earlier work.
For data set [3], the target named is Src homology 3 domain (SH3) (Saccharomyces cerevisiae, UniProt P15891). The conditions noted are these: read-out: Kd (affinity to SH3), SH3-binding peptide to SH3, not part of the composition, cited from earlier work.

Like-named read-outs stand apart in the source and are kept apart here.

Sequence of Src homology 3 domain (SH3) (P15891 532-592 limits assumed): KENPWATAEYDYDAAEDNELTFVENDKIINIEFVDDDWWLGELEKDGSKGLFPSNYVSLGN
Sequence of Streptavidin (P22629 25-183): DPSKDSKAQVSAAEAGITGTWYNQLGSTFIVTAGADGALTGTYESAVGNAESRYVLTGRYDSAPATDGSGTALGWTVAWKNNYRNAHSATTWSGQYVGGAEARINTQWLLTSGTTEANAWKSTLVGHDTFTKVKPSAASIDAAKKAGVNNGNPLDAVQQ

On to `N=C1N[C@H]2[C@H](CS[C@H]2CCCCC(=O)O)N1` [2-iminobiotin], for which, in data set [1], the Kd was 12.5 µM. With “FGF-2: basic fibroblast growth factor, literature data of Nakamura et al.”, the remaining bioactivity in data set [2] is < 10%.

Turning to KPPVVKKPHYLS [compound 4], the Kd in data set [3] was 27 µM; in data set [3] (listed as weak binder), 10 µM.
